Earlier results, collected in Sander's compilation of Henry's law constants.
Several values for one entry are separate records, joined by “and”; a condition that tells them apart may be missing. Identical values can stand only once. Values belong to the compound of their own block, whether it stands above or below them.

How the values were obtained:
[1] = Henry solubility constant Hcp at 295 K (mol/(m3 Pa)); settings: cited value
[2] = Henry solubility constant Hcp at 310 K (mol/(m3 Pa)); settings: cited value
[3] = Henry solubility constant Hcp at 298.15 K (mol/(m3 Pa)); settings: cited value
[4] = Henry solubility constant Hcp at 277 K (mol/(m3 Pa)); settings: reference: Roth (1942); cited value
[5] = Henry solubility constant Hcp at 293 K (mol/(m3 Pa)); settings: cited value
[6] = Henry solubility constant Hcp at 311 K (mol/(m3 Pa)); settings: reference: Orcutt and Seevers (1937b); cited value
[7] = reference: Burkholder et al. (2015)
[8] = reference: Burkholder et al. (2019)
[9] = reference: Sander et al. (2006)
[10] = reference: Sander et al. (2011)
[11] = reference: Nicholson et al. (1984)

Henry solubility constant Hcp at 295 K ([1]; reference: Lee and Zhou (1993)): 990
Structure (SMILES): O=CCO [2-hydroxyethanal]

Henry solubility constant Hcp at 310 K ([2]; reference: Nahon et al. (2000)): 0.036 | Henry solubility constant Hcp ([3]; reference: Brockbank (2013)): 0.039
Structure (SMILES): CCCC(=O)OC [methyl butanoate]

Henry solubility constant Hcp at 295 K ([1]; reference: Lee and Zhou (1993)): 77
Structure (SMILES): CC(=O)CO [1-hydroxypropanone]

Henry solubility constant Hcp at 277 K [4]: 0.07 | Henry solubility constant Hcp [3]: 0.034 and 0.076
Structure (SMILES): ClOCl [dichlorine monoxide]

Henry solubility constant Hcp at 310 K ([2]; reference: Nahon et al. (2000)): 0.019 | Henry solubility constant Hcp ([3]; reference: Brockbank (2013)): 0.02
Structure (SMILES): CCCCCCCC=O [octanal]

Henry solubility constant Hcp at 310 K ([2]; reference: Nahon et al. (2000)): 0.027 | Henry solubility constant Hcp ([3]; reference: Brockbank (2013)): 0.025
Structure (SMILES): CCCC(=O)OCC [ethyl butanoate]

Second part, the compound before the results:

Structure (SMILES): [N-]=[N+]=O [dinitrogen monoxide]
Henry solubility constant Hcp at 293 K ([5]; reference: Macintosh et al. (1958)): 0.0003 | Henry solubility constant Hcp at 293 K ([5]; reference: Nunn (1958)): 0.00028 | Henry solubility constant Hcp at 310 K ([2]; reference: Harris (1951)): 0.00017 | Henry solubility constant Hcp at 311 K [6]: 0.00017 | Henry solubility constant Hcp [3, 7]: 0.00024 | Henry solubility constant Hcp [3, 8]: 0.00024 | Henry solubility constant Hcp ([3]; reference: Gordon (1895)): 0.00026 | Henry solubility constant Hcp [3, 9]: 0.00024 | Henry solubility constant Hcp [3, 10]: 0.00024 | Henry solubility constant Hcp ([3]; reference: Young (1981b)): 0.00024

Structure (SMILES): CC(=O)OO[N+](=O)[O-] [peroxyacetyl nitrate]
Henry solubility constant Hcp at 295 K ([1]; reference: Schwartz (1986)): 0.036 | Henry solubility constant Hcp [3, 7]: 0.028 | Henry solubility constant Hcp [3, 8]: 0.028 | Henry solubility constant Hcp ([3]; reference: Gaffney and Senum (1984)): 0.036 | Henry solubility constant Hcp ([3]; reference: Leu and Zhang (1999)): 0.029 | Henry solubility constant Hcp ([3]; reference: Pandis and Seinfeld (1989)): 0.029 | Henry solubility constant Hcp [3, 9]: 0.028 | Henry solubility constant Hcp [3, 10]: 0.028

Structure (SMILES): C#C [ethyne]
Henry solubility constant Hcp at 293 K ([5]; reference: Vtovec (1968)): 0.00044 | Henry solubility constant Hcp [3, 7]: 0.00041 | Henry solubility constant Hcp [3, 8]: 0.00041 | Henry solubility constant Hcp ([3]; reference: Deno and Berkheimer (1960)): 0.00041 | Henry solubility constant Hcp ([3]; reference: Fogg et al. (2002)): 0.00041 | Henry solubility constant Hcp [3, 9]: 0.00041 | Henry solubility constant Hcp [3, 10]: 0.00041 | Henry solubility constant Hcp ([3]; reference: Schoen (1923)): 0.00041

Structure (SMILES): [Hg] [mercury]
Henry solubility constant Hcp at 293 K ([5]; reference: WHO (1990)): 0.0014 | Henry solubility constant Hcp [3, 7]: 0.0013 | Henry solubility constant Hcp [3, 8]: 0.0013 | Henry solubility constant Hcp ([3]; reference: Clever (1987)): 0.0012 | Henry solubility constant Hcp ([3]; reference: Clever et al. (1985)): 0.0011 | Henry solubility constant Hcp ([3]; reference: Shon et al. (2005)): 0.0012

Structure (SMILES): ClC(Br)Br [dibromochloromethane]
Henry solubility constant Hcp at 293 K [5, 11]: 0.011 | Henry solubility constant Hcp [3, 7]: 0.0086 | Henry solubility constant Hcp [3, 8]: 0.0086 | Henry solubility constant Hcp ([3]; reference: Fogg and Sangster (2003)): 0.0087 | Henry solubility constant Hcp ([3]; reference: Goldstein (1982)): 0.012 | Henry solubility constant Hcp [3, 11]: 0.012 | Henry solubility constant Hcp [3, 9]: 0.0086 | Henry solubility constant Hcp [3, 10]: 0.0086

Structure (SMILES): CCOC(C)=O [ethyl ethanoate]
Henry solubility constant Hcp at 310 K ([2]; reference: Nahon et al. (2000)): 0.039 | Henry solubility constant Hcp ([3]; reference: Brockbank (2013)): 0.065 | Henry solubility constant Hcp [3, 7]: 0.059 | Henry solubility constant Hcp [3, 8]: 0.065 | Henry solubility constant Hcp [3, 10]: 0.059
